From patent US10669266B2, “Oxadiazole inhibitors of HIPK2 for treating kidney fibrosis” (ICAHN SCHOOL OF MEDICINE AT MOUNT SINAI, priority 2017, dated 2020)
Like-named read-outs stand apart in the source and are kept apart here.

How the values were obtained:
UUO mice = test: Unilateral ureteral obstruction (UUO) mouse model of renal fibrosis; format: in vivo; settings: for fibrosis at 14 days post-surgery (picosirius red, Masson's trichrome, Collagen I immunofluorescence): administration starting at day 7 post-surgery (day 7 to 14)
Procedure: Tg26 mice of FVB/N genetic background bearing a defective HIV-1 provirus lacking gag-pol have been described by Feng et al. [J Am Soc Nephrol 2009; 20: 2138-2146]. Six-week old heterozygous Tg26 mice were used in this study. Wildtype littermates were used as controls. Mice in the treatment group received test compound dissolved in DMSO and diluted in saline (5% DMSO) by oral gavage at a dose of 200 μg/kg body weight per day. Mice in the control group received the same volume of 5% DMSO/saline vehicle. The mice were treated for a total of 4 weeks and sacrificed at age of 10 weeks. The UUO model was established in male C57BL/6 mice (The Jackson Laboratory) by ligation of the left ureter as described by Jin et al. [Lab Invest, 93: 801-811, 2013]. After the operation, UUO mice were randomly divided into control group (vehicle) and treatment group. Mice were fed with test compound by oral gavage at a dose of 200 μg/kg body weight per day for 7 days.
Immunofluorescence staining was conducted on paraffin-embedded kidney sections using standard procedures. Briefly, deparaffinized sections were incubated with primary antibody against collagen I (1:50, #NB6-00-4-8, Novus) at 4° C. overnight. After being washed, sections were incubated with Alexa Fluor488-labelled second antibody (1:200, #A11034, Invitrogen) at room temperature for 1 hour in darkness. After nuclei were stained with 4′, 6-diamidino-2-phenyllindole (DAPI) slides were mounted using Aqua PolyMount (Polysciences, Inc) and images were acquired using AxioVision IIe microscope with a digital camera.
Renal fibrosis was evaluated histologically by Sirius red staining on paraffin slides of mice kidney tissues according to the manufacturer's instructions (#ab150681, Abcam). Masson's trichrome staining on paraffin slices of mice kidney tissue was performed according to manufacturer's instructions (#87019, Thermo Scientific).
The unilateral ureteral obstruction (UUO) mouse model, a commonly used model for renal fibrosis, was used to determine whether compounds of the invention can ameliorate fibrosis in vivo. […]

[1] = tested on: Smad3-responsive luciferase reporter (SBE4-Luc); settings: for suppression of Smad3 reporter activity, inhibition compared to DMSO control: absence of TGF-β1 stimulation
Procedure: Forty-eight hours post-transfection cells were treated with assigned concentrations of test compound together with or without 10 ng/ml TGF-β1 for 16 hours. Luciferase activities were measured using the Dual-Luciferase Reporter Assay kit (Promega, #E1910). Data are expressed as the ratio of firefly luciferase activity over Renilla luciferase activity. […] 48 hours after transfection, luciferase activities were measured.

[2] = tested on: TGF-β1/Smad3 downstream target genes (Col I, CTGF, FN1, MMP2, PAI1, α-SMA); test: Real-time PCR of TGF-β1/Smad3 downstream target genes in hRTECs; format: cell-based, human
Procedure: HEK 293T (293T) cells (ATCC) were cultured in Dulbecco's Modified Eagle's medium (Invitrogen) containing 10% fetal bovine serum (FBS), 0.5% penicillin and streptomycin at 37° C. and 5% CO2 humidified environment. Human primary tubular cells (PromoCell GmbH, Heidelberg, Germany) were cultured in Renal Epithelial Cell Growth Medium-2 (Promocell GmbH) with supplements according to manufacturer's protocol human primary renal tubular epithelial cells with <5 passages were used for all studies. For HIV infection of hRTECs, pNL4-3:ΔG/P-EGFP, a gag/poi-deleted HIV-1 construct that contains EGFP in the gag open reading frame, and pHR-IRES-EGFP, a control EGFP construct, were used to generate the VSV-G pseudotyped virus. Cells were infected with HIV pseudotyped virus or control virus for 2 days before the treatment with test compound.
Total RNA was extracted using Trizol (Invitrogen). 400 ng of total RNA was reverse transcribed to cDNA using SuperScript III first strand synthesis system (Invitrogen).
Quantitative RT-PCR was performed using 7500 Real-Time PCR System (Applied Biosystems). Gene level was normalized to glyceraldehyde 3-phosphate dehydrogenase (GAPDH) and expressed as fold change. The primer sets used were as follows:
The effects of compounds of the invention on Smad3 phosphorylation and the expression of the downstream target genes of TGF-β/Smad3 pathway was also examined. […]

HIPK2-Smad3 interaction = molecular target: T1, HIPK2-Smad3 interaction (Homo sapiens, UniProt Q9H2X6); test: His6-HIPK2 cobalt resin pull-down of endogenous Smad3 in 293T cells; format: cell-based; settings: 293T cells overexpressing His6-HIPK2, two different doses
T1 construct: host or cells: HEK 293T
T1 sequence (Q9H2X6 whole entry): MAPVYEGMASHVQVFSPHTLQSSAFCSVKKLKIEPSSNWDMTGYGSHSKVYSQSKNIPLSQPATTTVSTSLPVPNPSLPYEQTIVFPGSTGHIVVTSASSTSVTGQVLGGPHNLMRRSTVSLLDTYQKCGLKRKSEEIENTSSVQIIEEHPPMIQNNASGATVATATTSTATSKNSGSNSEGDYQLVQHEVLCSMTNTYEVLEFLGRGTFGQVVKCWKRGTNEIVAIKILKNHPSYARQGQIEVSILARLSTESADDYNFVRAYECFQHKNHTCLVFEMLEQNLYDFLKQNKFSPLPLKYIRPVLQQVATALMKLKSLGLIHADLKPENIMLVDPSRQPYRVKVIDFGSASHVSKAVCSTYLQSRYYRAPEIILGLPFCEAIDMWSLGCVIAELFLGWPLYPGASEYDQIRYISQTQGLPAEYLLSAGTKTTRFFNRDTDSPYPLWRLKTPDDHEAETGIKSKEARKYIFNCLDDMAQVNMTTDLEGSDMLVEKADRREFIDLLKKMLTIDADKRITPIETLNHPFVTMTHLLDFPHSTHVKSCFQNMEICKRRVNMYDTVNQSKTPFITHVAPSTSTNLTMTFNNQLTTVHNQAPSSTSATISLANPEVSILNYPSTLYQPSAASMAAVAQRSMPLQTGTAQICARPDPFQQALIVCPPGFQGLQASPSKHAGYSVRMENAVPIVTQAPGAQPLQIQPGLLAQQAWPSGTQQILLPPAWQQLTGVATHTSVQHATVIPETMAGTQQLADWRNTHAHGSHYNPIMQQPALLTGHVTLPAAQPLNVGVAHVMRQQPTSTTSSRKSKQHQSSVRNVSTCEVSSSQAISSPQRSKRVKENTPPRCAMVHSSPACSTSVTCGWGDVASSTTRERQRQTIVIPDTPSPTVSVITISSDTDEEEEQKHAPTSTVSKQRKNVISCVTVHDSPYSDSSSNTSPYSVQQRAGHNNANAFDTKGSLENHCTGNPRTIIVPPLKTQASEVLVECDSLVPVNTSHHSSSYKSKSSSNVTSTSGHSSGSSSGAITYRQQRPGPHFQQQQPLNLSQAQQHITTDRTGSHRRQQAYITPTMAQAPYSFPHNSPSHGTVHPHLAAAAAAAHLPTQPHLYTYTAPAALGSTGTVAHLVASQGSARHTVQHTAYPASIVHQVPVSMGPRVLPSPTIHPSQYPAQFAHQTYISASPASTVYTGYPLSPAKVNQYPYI
Procedure: 4×Smad binding element-driven firefly luciferase (SBE4-Luc) plasmid was purchased from Addgene (#16495). Renilla luciferase reporter plasmid (pRL) was purchased from Promega. Active domain deleted HIPK2 was previously described by Jin et al. [Nat Med, 18: 580-588]. The His6-HIPK2 construct was generated by PCR amplification of coding region using plasmid containing human HIPK2 gene (GeneCopoeia™) as the template.
293T cells were lysed in equilibration/wash buffer (50 mM sodium phosphate, 300 mM sodium chloride, 10 mM imidazole; pH 7.4) 48 hours after transfection of His6-tagged HIPK2 expression plasmid. Cleared cell lysate was incubated with HisPur Cobalt resin (Thermo Fisher Scientific, NY) on end-over-end rotator at 4° C. for 2 hours. After centrifugation (700×g, 2 min, 4° C.), the resin was washed 3 times in a wash buffer. The bound protein complexes were finally eluted with elution buffer (50 mM sodium phosphate, 500 mM sodium chloride, 150 mM imidazole; pH 7.4) and subjected to western blot analysis.
Cells were lysed in M-PER mammalian protein extraction reagent (#78501, Thermo Fisher Scientific, NY) containing protease inhibitor cocktail (#11836153001, Roche) and phosphatase inhibitors (50 mM NaF, 10 mM β-glycerophosphate, 5 mM sodium pyrophosphate, 2 mM Na3VO4). Total protein concentration was measured using the Bradford reagent (#500-0006, Bio-Rad). […]

## COc1ccc2cc(-c3nc(-c4ccc(Br)cc4)no3)cnc2c1 [Example 1, 3-(4-Bromophenyl)-5-(7-methoxyquinolin-3-yl)-1,2,4-oxadiazole]
UUO mice; UUO kidneys, treatment day 7 to 14
  expression of Wnt/β-catenin pathway genes (Axin2, c-myc, Twist), real-time PCR: significantly diminished
UUO mice; UUO mice, 200 μg/kg/day oral gavage, day of surgery to 7 days post-surgery
  Smad3 phosphorylation and α-SMA expression in UUO kidneys (western blot): significantly decreased
UUO mice; UUO mice, 200 μg/kg/day oral gavage, day of surgery to 7 days post-surgery, vs vehicle
  renal fibrosis (picrosirius red, Masson's trichrome, Collagen I immunofluorescence): significantly attenuated renal fibrosis
UUO mice; UUO mice, listed as BT173
  fibrosis at 14 days post-surgery (picosirius red, Masson's trichrome, Collagen I immunofluorescence): significant attenuation of fibrosis
UUO mice; UUO mice, listed as Example I
  fibrosis at 14 days post-surgery (picosirius red, Masson's trichrome, Collagen I immunofluorescence): showed efficacy in amelioration of fibrosis progression
UUO mice; UUO mice, treatment day 7 to 14
  p53 activation (phosphorylation) in UUO kidneys: no effects
UUO mice; UUO mice, treatment day 7 to 14, vs vehicle-treated UUO kidneys
  p-Smad3 and α-SMA in kidney cortex (western blot): marked reduction
[1]
  Luciferase Activity (Relative to DMSO control) −TGFβ: 0.197
[1]; 3.3 μm
  suppression of Smad3 reporter activity, inhibition compared to DMSO control: ~40%
[1]; 10 μm
  suppression of Smad3 reporter activity, inhibition compared to DMSO control: ~70%
[1]; presence of TGF-β1, first of three tested doses
  SBE4-luciferase activity, inhibition compared to TGFβ1-treated only control: ~40%
[1]; presence of TGF-β1, second of three tested doses
  SBE4-luciferase activity, inhibition compared to TGFβ1-treated only control: ~60%
[1]; presence of TGF-β1, third of three tested doses
  SBE4-luciferase activity, inhibition compared to TGFβ1-treated only control: ~75%
[2]; absence of TGF-β1 stimulation
  expression of Col I, CTGF, FN1, MMP2, PAI1 and α-SMA (real-time PCR): did not affect expression
[2]; treated with TGF-β1, increasing concentrations
  expression of Col I, CTGF, FN1, MMP2, PAI1 and α-SMA (real-time PCR): progressively inhibited
HIPK2-Smad3 interaction
  interaction between Smad3 and HIPK2 (His6-HIPK2 pull-down): reduced the interaction between Smad3 and HIPK2 in a dose-dependent manner
